ChEMBL document CHEMBL4673341, “Anti-prion and α-Synuclein Aggregation Inhibitory Sterols from the Sponge Lamellodysidea cf. chlorea” (J Nat Prod, 2020)
Active and inactive are the calls of the source. No cut-off for these calls is given here.

How the values were obtained:
Saccharomyces cerevisiae = experiment: Anti-prion activity against [URE3] protein in Saccharomyces cerevisiae SB34 at 100 uM measured after 96 hrs by fluorimetry analysis
[1] = Anti-prion activity against [PSI+] protein in Saccharomyces cerevisiae STRg6 measured after 96 hrs by fluorimetry analysis
[2] = molecular target: Alpha-synuclein (Homo sapiens) (UniProt P37840); experiment: Inhibition of human alpha-synuclein aggregation expressed in Escherichia coli BL21 (DE3) cells at 400 uM at 5:1 molar ratio after 72 hrs by ThT fluorescence assay relative to control; parameters: scale not given: the % may be the effect or the level left
[3] = molecular target: Alpha-synuclein (Homo sapiens) (UniProt P37840); experiment: Binding affinity to human alpha-synuclein aggregation expressed in Escherichia coli BL21 (DE3) cells at 50 uM at 1:1 molar ratio after 3 hrs by (+) HRESIMS analysis

Row | SMILES | Activity (Saccharomyces cerevisiae) | EC50 [1] [µM] | Activity [2] [%] | Activity [3]
1 | N=C(N)N/N=C/c1c(Cl)cccc1Cl [GUANABENZ] | Active | 26 |  | 
2 | CC(CCC[C@@H](C)[C@H]1CC[C@@H]2[C@]1(C)CC[C@@H]1[C@@]3(C)CC[C@@H](O)C[C@@H]3C[C@@H](O)[C@]12O)COS(=O)(=O)O (some centres undefined) | Active | 12.7 | 68 | Active
3 | C[C@@H](C/C=C/[C@@H](C)[C@H]1CC[C@@H]2[C@]1(C)CC[C@@H]1[C@@]3(C)CC[C@@H](O)C[C@@H]3C[C@@H](O)[C@]12O)COS(=O)(=O)O (relative stereo) |  | 13.8 |  | 
4 | O=C(O[C@@H]1Cc2c(O)cc(O)cc2O[C@@H]1c1cc(O)c(O)c(O)c1)c1cc(O)c(O)c(O)c1 |  |  | 96.3 | 
5 | CC(/C=C/[C@@H](C)[C@H]1CC[C@@H]2[C@]1(C)CC[C@@H]1[C@@]3(C)CC[C@@H](O)C[C@@H]3C[C@@H](O)[C@]12O)C(C)COS(=O)(=O)O (some centres undefined) |  | 9.8 |  | 
